Data reported in patent US7179807B2, “5-substituted-2-arylpyrazines” (Neurogen Corporation, priority 2002, dated 2007).

These molecules were tested against T1, CRF1 receptor (Homo sapiens, UniProt P34998) (assay: standard in vitro CRF receptor binding assay (125I-CRF, IMR-32 cell membranes)). Conditions: Table I; asterisk = tested in the Example 30 assay, membranes of BrdU-induced IMR-32 cells, 125I-CRF 100 pM; read-out: Ki < 1 μM.
T1 construct: To induce CRF1 receptor expression, the cells are grown to approximately 80% confluence; endogenous in cells; host or cells: IMR-32 human neuroblastoma cells, BrdU-induced, as membrane homogenates
T1 sequence (P34998 24-415): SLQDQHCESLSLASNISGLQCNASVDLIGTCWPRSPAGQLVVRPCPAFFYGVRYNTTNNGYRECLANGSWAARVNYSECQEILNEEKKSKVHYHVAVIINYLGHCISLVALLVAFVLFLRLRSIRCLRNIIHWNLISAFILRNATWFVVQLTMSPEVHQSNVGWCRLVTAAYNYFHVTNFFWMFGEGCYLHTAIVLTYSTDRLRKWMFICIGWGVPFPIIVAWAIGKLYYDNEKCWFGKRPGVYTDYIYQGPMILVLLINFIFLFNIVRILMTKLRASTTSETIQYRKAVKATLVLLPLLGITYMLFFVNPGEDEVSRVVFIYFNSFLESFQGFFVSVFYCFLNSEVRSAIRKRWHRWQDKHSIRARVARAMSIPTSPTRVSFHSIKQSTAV
Description: As discussed above, the following assay is defined herein as a standard in vitro CRF receptor binding assay. The pharmaceutical utility of compounds of this invention is indicated by the following assay for CRF1 receptor activity.
The CRF receptor binding is performed using a modified version of the assay described by Grigoriadis and De Souza (Methods in Neurosciences, Vol. 5, 1991). IMR-32 human neuroblastoma cells, a cell line that can be induced to express the CRF1 receptor, are cultured in growth medium consisting of EMEM w/Earle's BSS (JRH Biosciences, Cat# 51411) supplemented with 10% Fetal Bovine Serum, 25 mM HEPES (pH 7.2), 1 mM Sodium Pyruvate, and Non-Essential Amino Acids (JRH Biosciences, Cat# 58572). Stock cultures of cells are grown to confluence and subcultured twice per week at split ratios of 1:2 to 1:4 (cells are dislodged during subculturing using No-Zyme, JRH Biosciences, Cat# 59226). To induce CRF1 receptor expression, the cells are grown to approximately 80% confluence and then changed to growth media containing 2.5 μM 5-bromo-2′deoxyuridine (BrdU, Sigma, Cat# B9285). Growth media containing BrdU is replaced every 3–4 days and the cells are harvested via centrifugation (using No-Zyme) after 10 days of BrdU treatment. Harvested cells are stored frozen at −80° C. until needed for the preparation of membrane homogenates.
To prepare receptor-containing membranes cells are homogenized in wash buffer (50 mM Tris HCl, 10 mM MgCl2, 2 mM EGTA, pH 7.4) and centrifuged at 48,000×g for 10 minutes at 4° C. The pellet is re-suspended in wash buffer and the homogenization and centrifugation steps are performed once more.
Membrane pellets (containing CRF receptors) are resuspended and brought to a final concentration of 1.0 mg membrane protein/ml in binding buffer (Tris buffer above with 0.1% BSA and 0.1 mM bacitracin). For the binding assay, 150 microliters of the membrane preparation is added to 96 well microtube plates containing 50 microliters of ^125I-CRF (SA 2200 Ci/mmol, final concentration of 100 pM) and 2 microliters of test compound. Binding is carried out at room temperature for 2 hours. Plates are then harvested using 50 mM Tris buffer pH 7.4, on a BRANDEL 96 well cell harvester and filters (soaked in 1% PEI for 1.5 hours) are counted for gamma emissions on a Wallac 1205 BETAPLATE liquid scintillation counter. Non-specific binding is defined by 2 micromolar cold CRF. Ki values are calculated with the non-linear curve fitting program RS/1 (BBN Software Products Corp., Cambridge, Mass.).
With CCc1cc(-c2nc(OC)c(NC(CC)CC)nc2C)c(C)nc1OC [Compound 1, [5-(5-Ethyl-6-methoxy-2-methyl-pyridin-3-yl)-3-methoxy-6-methyl-pyrazin-2-yl]-(1-ethyl-propyl)-amine] the Ki was < 1000 nM. CCC(CC)Nc1nc(C)c(-c2nc(OC)c(NC(CC)CC)nc2C)nc1OC [Compound 2, N-5,N-5′-Bis-(1-ethyl-propyl)-6,6′-dimethoxy-3,3′-dimethyl-[2,2′]bipyrazinyl-5,5′-diamine] was tested, and the Ki was < 1000 nM. In the case of CCc1cc(-c2nc(NC)c(OC(CC)CC)nc2C)c(C)nc1OC [Compound 3, [5-Methyl-6-(5-ethyl-6-methoxy-2-methyl-pyridin-3-yl)-3-(1-ethyl-propoxy)-pyrazin-2-yl]-methyl-amine], the Ki is reported as < 1000 nM. With CCc1cc(-c2nc(NC)c(OC(CC)CC)nc2CC)c(C)nc1OC [Compound 4, [5-Ethyl-6-(5-ethyl-6-methoxy-2-methyl-pyridin-3-yl)-3-(1-ethyl-propoxy)-pyrazin-2-yl]-methyl-amine] the Ki was < 1000 nM. CCc1nc(OC(CC)CC)c(NC)nc1-c1c(C)noc1C [Compound 5, [6-(3,5-Dimethyl-isoxazol-4-yl)-5-ethyl-3-(1-ethyl-propoxy)-pyrazin-2-yl]-methyl-amine] was tested, and the Ki was < 1000 nM. With CCc1nc(OC(CC)CC)c(NC)nc1-c1ccc(C(C)C)nc1C [Compound 8, [5-Ethyl-6-(2-methyl-6-isopropyl-2-pyridin-3-yl)-3-(1-ethyl-propoxy)-pyrazin-2-yl]-methyl-amine] the Ki was < 1000 nM. CCc1nc(OC(CC)CC)c(NC)nc1-c1ccc(C(C)C)nc1O [Compound 9, [5-Ethyl-6-(2-hydroxy-6-isopropyl-2-pyridin-3-yl)-3-(1-ethyl-propoxy)-pyrazin-2-yl]-methyl-amine] was tested, and the Ki was < 1000 nM. For CCc1nc(OC(CC)CC)c(NC)nc1-c1ccc(N(C)C)nc1C [Compound 10, [5-Ethyl-6-(2-methyl-6-dimethylamino-2-pyridin-3-yl)-3-(1-ethyl-propoxy)-pyrazin-2-yl]-methyl-amine], the Ki was < 1000 nM. For CCc1nc(OC(CC)CC)c(NC)nc1-c1ccc(C(C)C)nc1N(C)C [Compound 11, [5-Ethyl-6-(2-dimethylamino-6-isopropyl-2-pyridin-3-yl)-3-(1-ethyl-propoxy)-pyrazin-2-yl]-methyl-amine], the Ki was < 1000 nM. CCc1nc(OC(CC)CC)c(NC)nc1-c1ccc(C(C)C)nc1N1CCC1 [Compound 13, [6-(2-Azetidin-1-yl-6-isopropyl-pyridin-3-yl)-5-ethyl-3-(1-ethyl-propoxy)-pyrazin-2-yl]-methyl-amine] was tested, and the Ki was < 1000 nM. With CCc1nc(OC(CC)CC)c(NC)nc1-c1ccc(C(C)C)nc1N(CC)CC [Compound 14, [6-(2-Diethylamino-6-isopropyl-pyridin-3-yl)-5-ethyl-3-(1-ethyl-propoxy)-pyrazin-2-yl]-methyl-amine] the Ki was < 1000 nM. In the case of CCC(CC)Oc1nc(Br)c(-c2cc(Br)c(NC(C)C)nc2C)nc1NC [Compound 15, [3-(1-Ethyl-propoxy)-6-(6-isopropyl-amino-2-methyl-5-bromo-pyridin-3-yl)-5-bromo-pyrazin-2-yl]-methyl-amine], the Ki is reported as < 1000 nM. With CCc1cc(-c2nc(NC)c(OC(CC)CC)nc2CC)c(C)nc1N(C)C [Compound 16, [6-(6-Dimethylamino-5-ethyl-2-methyl-pyridin-3-yl)-5-ethyl-3-(1-ethyl-propoxy)-pyrazin-2-yl]-methyl-amine] the Ki was < 1000 nM. CCC(CC)Oc1nc(C)c(-c2cc(C)c(NC(C)C)nc2C)nc1NC [Compound 17, [3-(1-Ethyl-propoxy)-6-(6-isopropyl-amino-2,5-dimethyl-pyridin-3-yl)-5-methyl-pyrazin-2-yl]-methyl-amine] was tested, and the Ki was < 1000 nM. For “[5-Ethyl-6-(2-ethoxy-6-isopropoxy-2-pyridin-3-yl)-3-(1-ethyl-propoxy)-pyrazin-2-yl]-methyl-amine [Compound 7]”, the Ki was < 1000 nM. In the case of “[5-Ethyl-6-(2-ethyl-6-isopropoxy-2-pyridin-3-yl)-3-(1-ethyl-propoxy)-pyrazin-2-yl]-methyl-amine [Compound 6]”, the Ki is reported as < 1000 nM.
